The values that follow come from the supplement of paper PMC10307832.

What all share (test): relative viability (nuclei count vs DMSO), 5 days (fraction); higher = more cells survive
Compound in test [1]: Nc1nc2[nH]cc(CCc3ccc(C(=O)N[C@@H](CCC(=O)O)C(=O)O)cc3)c2c(=O)[nH]1 [Pemetrexed] + Nc1ncn([C@H]2C[C@H](O)[C@@H](CO)O2)c(=O)n1 [Decitabine] (partner 2 µM)
The method, boiled down: (§1)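 Values are medians from duplicate plates. Each reflects relative viability, defined as the nuclei count of treated wells over that of vehicle wells. Lung cancer cell lines in 1536-well plates were pin-tool dosed one day after seeding with one drug alone or with a fixed anchor-drug dose plus five library-drug doses (not always all listed) in √10 steps, then fixed, stained and imaged at 4× after 5 days.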

Compound in test [2]: Nc1nc2[nH]cc(CCc3ccc(C(=O)N[C@@H](CCC(=O)O)C(=O)O)cc3)c2c(=O)[nH]1 [Pemetrexed] + Cc1nc(Nc2ncc(C(=O)Nc3c(C)cccc3Cl)s2)cc(N2CCN(CCO)CC2)n1 [Dasatinib] (partner 0.075 µM)
A digest of the protocol: as §1

Compound in test [3]: CC[C@H](Nc1ncnc2[nH]cnc12)c1nc2cccc(F)c2c(=O)n1-c1ccccc1 [Idelalisib] + COc1cc2c(Oc3ccc(NC(=O)C4(C(=O)Nc5ccc(F)cc5)CC4)cc3F)ccnc2cc1OCCCN1CCOCC1 [Foretinib] (partner 0.25 µM)
The method, boiled down:
as §1

Compound in test [4]: Nc1nc2[nH]cc(CCc3ccc(C(=O)N[C@@H](CCC(=O)O)C(=O)O)cc3)c2c(=O)[nH]1 [Pemetrexed] + CCNC(=O)c1noc(-c2cc(C(C)C)c(O)cc2O)c1-c1ccc(CN2CCOCC2)cc1 [Luminespib] (partner 0.01 µM)
A digest of the protocol: as §1

Turning to UMC-11, the relative viability in test [1] (first compound 0.002 µM) turned out to be 0.849; in test [1] (first compound 0.006325 µM), 0.63; in test [1] (first compound 0.02 µM), 0.595; in test [1] (first compound 0.06325 µM) it was 0.58; in test [1] (first compound 0.2 µM), 0.7; in test [2] (first compound 0.002 µM) it was 0.483. Also, the relative viability in test [2] (first compound 0.006325 µM) worked out at 0.451; in test [2] (first compound 0.02 µM), 0.468; in test [2] (first compound 0.06325 µM) it was 0.442; in test [2] (first compound 0.2 µM) it was 0.474; in test [3] (first compound 0.04 µM) it was 0.957; in test [3] (first compound 0.1265 µM), 1.07. Moreover, the relative viability in test [3] (first compound 0.4 µM) was determined as 0.988; in test [3] (first compound 1.265 µM), 1.03; in test [3] (first compound 4 µM), 1.09; in test [4] (first compound 0.002 µM), 0.989; in test [4] (first compound 0.006325 µM), 0.972; in test [4] (first compound 0.02 µM) it was 1.03. In addition, the figures for the relative viability in test [4] (first compound 0.06325 µM) and in test [4] (first compound 0.2 µM) were 1.09 and 0.923, respectively.
